Results reported in patent US9765035B2 (priority 2013, dated 2017).
Like-named read-outs stand apart in the source and are kept apart here.

Tests used:
[1] = tested on: RKO cells, mono-methyl arginine; assay: RKO Methylation Assay (In Cell Western for mono-methyl arginine); format: cell-based; conditions: Homo sapiens, 72 hours
Excerpt: RKO adherent cells were purchased from ATCC (American Type Culture Collection), Manassas, Va., USA. DMEM/Glutamax medium, penicillin-streptomycin, heat inactivated fetal bovine serum, 0.05% trypsin and D-PBS were purchased from Life Technologies, Grand Island, N.Y., USA. Odyssey blocking buffer, 800CW goat anti-rabbit IgG (H+L) antibody, and Licor Odyssey infrared scanner were purchased from Licor Biosciences, Lincoln, Nebr., USA. Mono-methyl arginine antibody was purchased from Cell Signaling Technology, Danvers, Mass., USA. Methanol was purchased from VWR, Franklin, Mass., USA. 10% Tween 20 was purchased from KPL, Inc., Gaithersburg, Md., USA. DRAQ5 was purchased from Biostatus Limited, Leicestershire, UK.
RKO adherent cells were maintained in growth medium (DMEM/Glutamax medium supplemented with 10% v/v heat inactivated fetal bovine serum and 100 units/mL penicillin-streptomycin) and cultured at 37° C. under 5% CO2.
Cell Treatment, in Cell Western (ICW) for Detection of Mono-Methyl Arginine and DNA Content. […] Compound (100 nL) from a 96-well source plate was added directly to 384 well cell plate. Plates were incubated at 37° C., 5% CO2 for 72 hours. After three days of incubation, plates were brought to room temperature outside of the incubator for ten minutes and blotted on paper towels to remove cell media. 50 μL of ice cold 100% methanol was added directly to each well and incubated for 30 min at room temperature. After 30 min, plates were transferred to a Biotek EL406 plate washer and washed 2 times with 100 μL per well of wash buffer (1×PBS). Next 60 μL per well of Odyssey blocking buffer (Odyssey Buffer with 0.1% Tween 20 (v/v)) were added to each plate and incubated 1 hour at room temperature. Blocking buffer was removed and 20 μL per well of primary antibody was added (mono-methyl arginine diluted 1:200 in Odyssey buffer with 0.1% Tween 20 (v/v)) and plates were incubated overnight (16 hours) at 4° C. Plates were washed 5 times with 100 μL per well of wash buffer. […] The plates were washed 5 times with 100 μL per well wash buffer then 2 times with 100 μL per well of water. Plates were allowed to dry at room temperature then imaged on the Licor Odyssey machine which measures integrated intensity at 700 nm and 800 nm wavelengths. Both 700 and 800 channels were scanned.
Calculations: First, the ratio for each well was determined by:
Each plate included fourteen control wells of DMSO only treatment (minimum activation) as well as fourteen control wells for maximum activation treated with 20 μM of a reference compound. The average of the ratio values for each control type was calculated and used to determine the percent activation for each test well in the plate. Reference compound was serially diluted three-fold in DMSO for a total of nine test concentrations, beginning at 20 μM. Percent activation was determined and EC30 curves were generated using triplicate wells per concentration of compound.

human PRMT6 = human PRMT6 (Homo sapiens, UniProt Q96LA8); assay: biochemical
Excerpt: General Materials. S-adenosylmethionine (SAM), S-adenosylhomocysteine (SAH), bicine, Tween20, dimethylsulfoxide (DMSO), bovine skin gelatin (BSG), sodium butyrate and Tris(2-carboxyethyl)phosphine hydrochloride solution (TCEP) were purchased from Sigma-Aldrich at the highest level of purity possible. ^3H-SAM was purchase from American Radiolabeled Chemicals with a specific activity of 80 Ci/mmol. 384-well streptavidin Flashplates were purchased from PerkinElmer.
Substrates. Peptide representative of human histone H4 residues 36-50 was synthesized with an N-terminal linker-affinity tag motif and a C-terminal amide cap by 21st Century Biochemicals. The peptide was purified by high-performance liquid chromatography (HPLC) to greater than 95% purity and confirmed by liquid chromatography mass spectrometry (LC-MS). The sequence was Biot-Ahx-[…]-amide and contained a monomethylated lysine at position 44 (SEQ ID NO.:5).
Molecular Biology: Full-length human PRMT6 (NM_018137.2) transcript clone was amplified from an HEK 293 cDNA library, incorporating a flanking 5′ sequence encoding a FLAG tag ([…]) (SEQ ID NO.:6) fused directly to Ser 2 of PRMT6 and a 3′ sequence encoding a hexa His sequence (HHHHHH) (SEQ ID NO.: 17) fused directly to Asp 375. The amplified gene was subcloned into pFastBacMam (Viva Biotech).
Protein Expression. Recombinant baculovirus were generated according to Bac-to-Bac kit instructions (Life Technologies). […] Infections were carried out at 37° C. for 48 hours, harvested by centrifugation, and stored at −80° C. for purification.
Protein Purification. […] Column was washed with 20 mM imidazole in the same buffer and Flag-PRMT6-His was eluted with 150 mM imidazole. Pooled fractions were dialysed against buffer Ni-A and further purified by anti-flag M2 affinity chromatography. Flag-PRMT6-His was eluted with 200 ug/ml FLAG peptide in the same buffer. Pooled fractions were dialysed in 20 mM Tris, 150 mM NaCl, 10% glycerol and 5 mM β-mercaptoethanol, pH 7.8. The purity of recovered protein was 95%.
General Procedure for PRMT6 Enzyme Assays on Peptide Substrates. The assays were all performed in a buffer consisting of 20 mM Bicine (pH=7.6), 1 mM TCEP, 0.005% BSG, and 0.002% Tween 20, prepared on the day of use. Compounds in 100% DMSO (1 ul) were spotted into a polypropylene 384-well V-bottom plates (Greiner) using a Platemate Plus outfitted with a 384-channel head (Thermo Scientific). DMSO (1 ul) was added to Columns 11, 12, 23, 24, rows A-H for the maximum signal control and 1 ul of SAH, a known product and inhibitor of PRMT6, was added to columns 11, 12, 23, 24, rows I-P for the minimum signal control. A cocktail (40 ul) containing the PRMT6 enzyme was added by Multidrop Combi (Thermo-Fisher). The compounds were allowed to incubate with PRMT6 for 30 min at room temperature, then a cocktail (10 ul) containing SAM and peptide was added to initiate the reaction (final volume=51 ul). The final concentrations of the components were as follows: PRMT6 was 1 nM, ^3H-SAM was 200 nM, non-radiolabeled SAM was 250 nM, peptide was 75 nM, SAH in the minimum signal control wells was 1 mM, and the DMSO concentration was 2%. The assays were stopped by the addition of non-radiolabeled SAM (10 ul) to a final concentration of 400 uM, which dilutes the ^3H-SAM to a level where its incorporation into the peptide substrate is no longer detectable. 50 ul of the reaction in the 384-well polypropylene plate was then transferred to a 384-well Flashplate and the biotinylated peptides were allowed to bind to the streptavidin surface for at least 1 hour before being washed once with 0.1% Tween20 in a Biotek EL×405 plate washer. The plates were then read in a PerkinElmer TopCount plate reader to measure the quantity of ^3H-labeled peptide bound to the Flashplate surface, measured as disintegrations per minute (dpm) or alternatively, referred to as counts per minute (cpm). […]

Sequence of human PRMT6 (Q96LA8 with tags, fused parts or gaps): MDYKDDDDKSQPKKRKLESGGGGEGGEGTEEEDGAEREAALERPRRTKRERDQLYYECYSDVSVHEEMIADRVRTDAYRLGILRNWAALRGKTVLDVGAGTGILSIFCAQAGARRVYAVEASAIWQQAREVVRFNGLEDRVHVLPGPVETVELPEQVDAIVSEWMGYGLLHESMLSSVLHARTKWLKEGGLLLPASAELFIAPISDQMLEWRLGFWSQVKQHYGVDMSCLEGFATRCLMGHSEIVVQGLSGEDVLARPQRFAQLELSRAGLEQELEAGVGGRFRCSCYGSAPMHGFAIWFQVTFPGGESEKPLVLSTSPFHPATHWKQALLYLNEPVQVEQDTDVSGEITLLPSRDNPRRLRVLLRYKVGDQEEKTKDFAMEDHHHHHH

CNCCN(C)Cc1n[nH]c2ccc(OC(C)C(C)C)cc12 (stereo not shown) [Compound 4]
EC30 ([1]; In Cell Western EC30, RKO cells, single experiment or average of multiple experiments, read-out: RGG ICW): 1680 nM
EC30 ([1]; In Cell Western, RKO cells, read-out: RGG ICW EC30): < 3000 nM
IC50 (human PRMT6; biochemical evaluation, peptide substrate, read-out: PRMT6 IC50): < 100 nM
IC50 (human PRMT6; single experiment or average of multiple experiments, read-out: PRMT6 biochemical evaluation (numerical)): 36.4 nM
